{"source": "patent US20220193253A1", "about": "“SLOW-RELEASE CYTOKINE CONJUGATES” (ProLynx LLC, priority 2019, published 2022)", "key": {"[1]": {"test_system": "Treg cells over Teff and NK cells", "settings": "cited from earlier work"}, "cell proliferation": {"test_system": "cell proliferation", "settings": "cited from earlier work"}, "[2]": {"experiment": "Pharmacokinetics of [aminopropyl]-IL-15 released from microsphere-IL-15", "assay_type": "in vivo, C57BL/6J mice", "experimental": "The microsphere-IL-15 slurry of Example 10 (275 nmol protein/mL) was diluted in 25 mM Na citrate buffer pH 5.9 containing 500 mM NaCl, 0.05% tween-20 and 1.25% (w/v) hyaluronic acid. For studies that required various doses of microsphere-IL15, serial dilutions were used obtain the desired microsphere-IL-15 concentration. In all cases, aseptic conditions were used to handle and prepare the microsphere conjugate. Syringes with fixed needles (27G) were backfilled with the conjugate (100 μL). The contents of the syringes were administered either s.c. or i.p. to normal, male C57BL/6J mice. Blood samples were drawn at −24, 4, 8, 24, 48, 96, 168 and 240 hours from alternating groups consisting of 3 mice each. HALT protease inhibitor cocktail (ThermoFisher Scientific) was added to all plasma samples prior to being frozen at −80° C. until analysis.\nELISAs for hIL-15 were performed according to the manufacturer's instructions (R&D Systems, hIL-15 Quantikine, Catalog #D1500) to determine the rhIL-15 plasma. Plasma samples were thawed on ice prior to dilution in the standard diluent provided by the manufacturer. The 4, 8, hour samples were diluted 50-fold, the 24 hour samples was diluted twenty-five fold, and the pre-bleed, 48, 96, 168 and 240 hour samples were diluted ten-fold. hIL-15 concentrations were plot as a function of time and fit using GraphPad Prism software.\nPharmacokinetics of [aminopropyl]-IL-15 released from the microsphere conjugate were measured in normal C57BL/6J mice. Mice were dosed with 2.4 nmol conjugated protein (200 μL injection). […] After approximately 120 hours, the observed concentration quickly decreases (FIG. 11). A one phase decay model fit of data through 120 results in a half-life of at least 200 hours. […] A second injection of MS-IL-15 (50 μg) increases the measured plasma IL-15 at 248 h to a similar concentration of the initial dose."}, "[3]": {"test_system": "CD44hiCD8+ T cells and NK cells in PBMCs", "experiment": "Pharmacodynamics of [aminopropyl]-IL-15 released from microsphere-IL-15", "assay_type": "in vivo, C57BL/6J mice", "settings": "for expansion of CD44hiCD8+ T cells / expansion of NK cells: single dose 2.5 μg; for expansion of NK cells in PBMCs: single s.c. injection 12.5, 25 or 50 μg", "experimental": "For flow cytometry analysis, PMBCs were prepared and surface staining was performed to quantitate NK1.1, CD3, CD8, and CD44 expressing cells. Commercial FITC-, PE- or allophycocyanin-conjugated antibodies were used. Sample data were collected on a FACScan flow cytometer (BD Biosciences) and analyzed using FlowJo cytometry analysis software (TreeStar, Ashland, Oreg.).\nPharmacodynamics of [aminopropyl]-IL-15 released from the microsphere-IL-15 of Example 10 were measured in normal, male C57BL/6J mice (n=3/group) (FIG. 14). Mice were dosed with microsphere-IL-15 (2.5, 12.5, 25 or 50 μg conjugated protein) prepared in Example 10. PMBCs were prepared and surface stained for flow cytometry analysis of NK1.1, CD3, CD8, and CD44 expressing cells. Commercial FITC-, PE- or allophycocyanin-conjugated antibodies were used. Sample data were collected on a FACScan flow cytometer (BD Biosciences) and analyzed using FlowJo cytometry analysis software (TreeStar, Ashland, Oreg.)."}, "[4]": {"test_system": "T-cells in the spleen and islets", "experiment": "Pharmacodynamics of IL2 and IL2[N88R,C125S] in NOD mice (flow cytometry of spleen and islets)", "assay_type": "in vivo", "settings": "daily injections 25,000 units for five days", "experimental": "Mice were sacrificed 2 hours after the last injection and the spleen and pancreas were harvested for flow cytometry analysis to measure changes in total number of T-cells and their differentiation in the spleen and islets."}, "[5]": {"test_system": "Foxp3+CD4+ T-cells and CD8+ T-cells", "experiment": "Pharmacodynamics of microsphere-IL-2[N88R,C125S] in NOD mice (flow cytometry)", "assay_type": "in vivo", "experimental": "Three groups of six NOD mice were used to determine the PK/PD of [aminopropyl]-IL-2[N88R,C125S] released from the microsphere-IL-2[N88R,C125S] conjugate. […] The second group was administered a subcutaneous injection of empty microspheres, in which cyclooctynes were capped with N3(CH2CH2O)7H. The third group was administered a single subcutaneous injection of the microsphere-IL-2[N88R,C125S] of Example 4 (0.5, 1, 5, 10 or 19 mg of protein/kg). Plasma, peripheral blood mononuclear cells (PBMCs) and organ tissues were prepared and analyzed according to the description in figure legends. Flow cytometric analysis of lymphocytes was performed to monitor changes in T-cell populations. The spleen and lymph nodes and islets were isolated and single cell suspensions were prepared. Surface-staining was performed following standard cell surface immunofluorescence staining for flow cytometry. Fixation and intracellular staining followed protocols from the eBioscience Foxp3/Transcription Factor Staining Buffer Set (ThermoFisher Scientific). Antibodies used were against CD3, CD4, CD8, CD25, CD44 CD45, and FoxP3; all were from commercial vendors. Stained single cell suspension were analyzed using a LSRII flow cytometer (BD Biosciences).\nThe percentage CD8+ cells found in the spleen and PBMCs were approximately 11% and 19% respectively. These percentages increased to approximately 25% and 60% respectively, when treated with the microsphere-IL-2[N88R,C125S]. NOD mice were administered IL2-mutein (QDx5, 25,000 units), a single injection of empty microspheres or microsphere-IL-2[N88R,C125S](18 mg/kg). Mice were sacrificed 2 hours after the last dose on day 5.\nTo determine an effective dose that would expand the Foxp3^+CD4^+Tcells population without the activation of CD8′ cells, a dose titration study of microsphere-IL-2[N88R,C125S] was performed. Four concentrations of the microsphere-IL-2[N88R,C125S](0.5 mg/kg, 1 mg/kg, 5 mg/kg and 10 mg/kg) were tested and the pharmacodynamics were monitored through PBMCs over two weeks. […] Foxp3^+CD4^+T-cell expansion peaked at four days and returned to baseline levels at day 14 for all doses (FIG. 9 A)."}, "CD8+ effector Tmem cells": {"test_system": "CD8+ effector Tmem cells", "settings": "continuous infusion over 10 days; cited from earlier work"}, "[6]": {"settings": "2.5, 12.5, 25 or 50 μg conjugated protein"}, "[7]": {"settings": "single sc injection 12.5, 25 or 50 μg"}, "[8]": {"settings": "single injection 18 mg/kg, day 5"}}, "note": "“Also recorded” adds a separate entry of the source."}
{"substance": "BAY 50-4798: IL-2 mutein having an arginine replacing asparagine at position 88, SEQ ID No: 2", "values": [{"measurement": "increase in selectivity for activation of Treg cells over Teff and NK cells", "setting": "[1]", "value": "3,000 fold"}]}
{"substance": "IL-15[N72D]: IL-15 mutein with enhanced receptor agonism, SEQ ID No: 15", "values": [{"measurement": "fold increase in biological activity over native IL-15", "setting": "cell proliferation", "value": "4-5 fold"}]}
{"substance": "MS-IL-15: BCN-activated PEG hydrogel microspheres loaded with linker-IL-15 (MeSO2 linker, N-terminal reductive alkylation)", "values": [{"measurement": "change in average mouse body weight", "setting": "[2]; 2.4 nmol conjugated protein", "value": "no significant change"}, {"measurement": "final average mouse body weight", "setting": "[2]; 2.4 nmol conjugated protein, initial 25.1±1.3 g", "value": "25.1 ± 1.4", "unit": "g"}, {"measurement": "change in average body weight", "setting": "[3]; [6]", "value": "no significant change"}, {"measurement": "clinical observation: injection site reaction", "setting": "[3]; [6]", "value": "no injection site reaction"}, {"measurement": "fold expansion of NK cells at peak", "setting": "[3]; 12.5, 25 or 50 μg", "value": "2-3 fold"}, {"measurement": "CD44hiCD8+ T cells levels at 28 days", "setting": "[3]; highest dose 50 μg", "value": "two-fold above the control group"}, {"measurement": "final average body weight", "setting": "[3]; initial 25.1±1.3 g", "value": "25.1 ± 1.4", "unit": "g"}, {"measurement": "duration of expansion of CD44hiCD8+ T cells", "setting": "[3]; single 50 ug injection", "value": 28, "unit": "days"}, {"measurement": "expansion of CD44hiCD8+ T cells", "setting": "[3]", "value": "no observed expansion"}, {"measurement": "expansion of NK cells", "setting": "[3]", "value": "not observed"}, {"measurement": "expansion of NK cells in PBMCs", "setting": "[3]", "value": "dose dependent expansion"}, {"measurement": "expansion of NK cells in PBMCs", "setting": "[3]; listed as microsphere-IL15", "value": "expands"}, {"measurement": "CD44hiCD8+ T cells remained elevated above the control group through", "setting": "[3]; [7]", "value": 21, "unit": "days"}, {"measurement": "expansion of CD44hiCD8+ T cells in PBMCs", "setting": "[3]; [7]", "value": "dose dependent expansion"}, {"measurement": "fold expansion of CD44hiCD8+ T cells at peak", "setting": "[3]; [7]", "value": "two to four fold"}, {"measurement": "time of peak CD44hiCD8+ T cell expansion post treatment", "setting": "[3]; [7]", "value": 5, "unit": "days"}, {"measurement": "expansion of CD44hiCD8+ T cells in PBMCs", "setting": "[3]; single sc injection 12.5, 25 or 50 μg, listed as microsphere-IL15", "value": "expands"}]}
{"substance": "Proleukin: Aldesleukin (recombinant IL-2), used as native IL-2 comparator in NOD mice [reference compound]", "values": [{"measurement": "effect on CD4+ and CD8+ effector/memory T-cells in the spleen", "setting": "[4]", "value": "increase in both T-cell populations"}, {"measurement": "effect on the T-cells in the islets compared to PBS vehicle", "setting": "[4]", "value": "little to no effect"}]}
{"substance": "[aminopropyl]-IL-15: IL-15 with N-terminal aminopropyl remnant, released from microsphere-IL-15", "values": [{"measurement": "AUCip compared to AUCsc", "setting": "[2]; 50 μg", "value": "nearly two-fold higher"}, {"measurement": "AUCip", "setting": "[2]; released from MS-IL-15 50 μg i.p.", "value": 0.0252, "unit": "µM·h"}, {"measurement": "AUCsc", "setting": "[2]; released from MS-IL-15 50 μg s.c.", "value": 0.0149, "unit": "µM·h"}]}
{"substance": "microsphere-IL-2[N88R,C125S]: PEG hydrogel microspheres carrying linker-N-terminal aminopropyl-IL-2[N88R,C125S] (MeSO2 linker, reductive alkylation); releases [aminopropyl]-IL-2[N88R,C125S]", "values": [{"measurement": "percentage / activation of CD8+ cells, dose titration", "setting": "[5]; doses 0.5-10 mg/kg, PBMCs", "value": "did not increase; also recorded: avoids activation"}, {"measurement": "expansion of Foxp3+CD4+ T-cells in spleen and PBMC", "setting": "[5]; [8]", "value": "massive expansion"}, {"measurement": "percentage CD8+ cells, PBMCs", "setting": "[5]; [8]", "value": 60, "unit": "%"}, {"measurement": "percentage of T-cells that were Foxp3+CD4+ T-cells, PBMC", "setting": "[5]; [8]", "value": "~55", "unit": "%"}, {"measurement": "percentage of T-cells that were Foxp3+CD4+ T-cells, spleen", "setting": "[5]; [8]", "value": "~70", "unit": "%"}, {"measurement": "expansion of Foxp3+CD4+ T-cells in PBMCs, dose titration", "setting": "[5]; single injection 0.5, 1, 5, 10 mg/kg, two weeks", "value": "dose dependent expansion; also recorded: preferentially expands"}]}
{"substance": "rhIL-15: native IL-15, SEQ ID No: 12 [reference compound]", "values": [{"measurement": "expansion of CD8+ effector Tmem cells in the peripheral blood", "setting": "CD8+ effector Tmem cells", "value": 100, "unit": "x"}, {"measurement": "expansion of CD44hiCD8+ T cells", "setting": "[3]", "value": "no observed expansion"}, {"measurement": "expansion of NK cells", "setting": "[3]", "value": "not observed"}]}
